Test results from patent US8846653B2, “Delta-tocotrienol treatment and prevention of pancreatic cancer” (University of South Florida, priority 2006, dated 2014).
pIC50: −log10 of the molar value.

Key:
[1] = tested on: AsPc1 pancreatic cancer cells; assay: Effect of tocotrienols on pancreatic cancer proliferation (MTT), 72 hours; format: cell-based, human; details: AsPc1, 40 to 100 μM, vs vehicle
From the text: (§1) FIGS. 11A and B are graphs showing the effect of tocotrienols on pancreatic cancer proliferation (MTT). […] Points, means; bars, SE (n=3).

[2] = tested on: MiaPaCa2 pancreatic cancer cells; assay: as above; format: cell-based, human; details: MiaPaCa2, 40 to 100 μM, vs vehicle
From the text: as §1

[3] = tested on: human pancreatic ductal epithelial cells transformed with oncogenic K-ras (HPDE-K-ras); assay: Proliferation (MTT) of K-ras transformed ductal epithelial cells; format: cell-based; details: 72 hours
Experimental: FIGS. 36A and B are graphs showing the effect of tocotrienols on Human Pancreatic Ductal Epithelial Kras Transformed cells (MTT). (A) Tocotrienols (10-100 μM) had no effect on the proliferation of normal immortalized human pancreatic ductal epithelial cells at 72 hours. […] Points, means; bars, SE (n=3). *p<0.001 vs. vehicle. # p<0.02 vs. vehicle
The Ras effector pathways Raf-MEK-ERK and PI3 kinase-AKT are important for cell proliferation and survival, respectively. Pancreatic cancer cell lines (MIA PaCa2, SW1990, BXPC3) and HPDE 6C7 cells were treated with 8-tocotrienol (20 μM) and cell lysates were collected and prepared at progressive time intervals as described above. Proteins from lysates were run by SDS PAGE and immunoblotted with the following antibodies: Ras, p-cRaf (ser 338), p-MEK1/2, MEK1/2, pERK 44/42, ERK 44/42 (Cell Signaling) and c-Raf (BD Transduction Laboratories). […] The MIA PaCa2 and SW1990 cells were then tested for AKT inhibition. The cells were treated with δ-tocotrienol (20 μM) for 24 and 48 hours and cell lysates were run by SDS-PAGE and immunoblotted for p-AKT and AKT (Cell Signaling). […] Taken together, the inhibition of downstream effectors of oncogenic Ras signaling by δ-tocotrienol without an effect on Ras protein levels may indicate a negative regulatory role of 8-tocotrienol on the function of oncogenic Ras. The pancreatic ductal epithelial cell proliferative inhibition by δ-tocotrienol was tested to see if it occurs through blocking aberrant signal transduction cascades. Immortalized human pancreatic ductal epithelial cells (HPDE) and human pancreatic ductal epithelial cells that were transformed by stable transfection of a mutated K-ras oncogene (HPDE-K-ras) were used to test the. effect of tocotrienols on the proliferation of HPDE and HPDE-K-ras.

MIA PaCa2 cells = assay: Proliferation by MTT, increasing concentrations of δ-tocotrienol; format: cell-based, human; details: MIA PaCa2, at 24 hours; read-out: IC50 (inhibition of proliferation, MTT)
Experimental: FIG. 22 is a graph wherein MIA PaCa2 pancreatic cancer cells (3×10^3) were plated in 96 well plates and treated the following day with δ-tocotrienol. Proliferation was assessed by MTT at 24 hour intervals. […] HPDE 6C7 cells were also treated with increasing concentrations of δ-tocotrienol for 24 hours.
MIA PaCa2, SW1990, BXPC3, and HPDE 6C7 cells (3×10^3) were cultured as described in the Examples above, in 96-well plates and treated the following day with increasing concentrations of δ-tocotrienol.

[4] = tested on: MiaPaCa2 pancreatic cancer cells; assay: Malignant transformation (Soft Agar) colony formation; format: cell-based, human; details: MiaPaCa2, 50 μM, vs vehicle
Experimental: FIG. 20 is a graph showing the effect of tocotrienols on pancreatic cancer malignant transformation (Soft Agar). […] Bars, SE (n=3). *p<0.001 vs. vehicle. **p<0.02 vs. vehicle. ***p<0.05 vs. vehicle. T=tocopherol, T3=tocotrienol.
MiaPaCa2 cells (3×10^3) were cultured as described in the Examples above, in 96-well plates and treated with 50 μM of different tocopherol or tocotrienol.

BXPC3 cells = assay: MTT assay of BXPC3 cultures, single 50 μM dose; format: cell-based, human; design: MTT assay result, run 1 / MTT assay result, run 2 / MTT assay result, run 3 / MTT assay result, run 4 / MTT assay result, run 5 / MTT assay result, run 6 / MTT assay result, run 7 / MTT assay result, av (average) / MTT assay result, av-blank / MTT assay result, av: unit not given here; details: BXPC3, 50 μM; for MTT assay result, av-blank: average minus blank; for MTT assay result, av (average) / MTT assay result, av: average of 7 runs
Experimental: BXPC3 cells were cultured in complete […] media containing 10% fetal bovine serum (FBS) and 1% penicillin-streptomycin, and 1% L-glutamine. BxPc-3 pancreatic cancer cells were cultured in complete RPMI media containing 10% fetal bovine serum (FBS), and 1% penicillin-streptomycin, 1% HEPES buffer, 1% sodium pyruvate and 1% L-glutamine HPDE6-C7 cells were cultured in serum-free keratinocyte SFM media. All cells were maintained at 37° C. in a humidified incubator with 5% CO2. The cells were treated with a single 50 μM dose of vehicle (vehicle only, may be a solvent), T3 alpha (alpha tocotrienol), T3 beta (beta tocotrienol), T3 gamma (gamma tocotrienol), T3 delta (delta tocotrienol), T alpha (alpha tocopherol), T beta (beta tocopherol), TS (tocopherol succinate), GG (geranylgeraniol), SA (succinic acid). A control (no treatment) culture was grown alongside the treatments for comparison. Cell viability was measured using MTT assay at preselect times of 48 or 120 hours after treatment.

[5] = tested on: MiaPaCa2 pancreatic cancer cells; assay: Apoptosis by cell death ELISA, 72 hours; format: cell-based, human; details: MiaPaCa2, 50 μM
Experimental: (§2) FIGS. 38A and B are graphs showing the effect of tocotrienols on pancreatic cancer survival (Trypan Blue and Cell death ELISA). […] T3=tocotrienol, T=tocopherol, vit E=vitamin E succinate, gem=gemcitabine, 5-FU=fluorouracil.
(§3) MIA PaCa2 cells (3×10^3) were plated in 96 well plates and treated the following day with different compositions of tocoperhol, tocotrienol, gemcitabine, or fluorouracil. The cells were harvested 72 hours later and tested using trypan blue assay and cell death ELISA.

[6] = tested on: MiaPaCa2 pancreatic cancer cells; assay: Cell death by trypan blue assay, 72 hours; format: cell-based, human; details: MiaPaCa2, 50 μM
Experimental: as §2, §3

Molecule	proliferation (MTT) [1]	proliferation (MTT) [2]	malignant transformation (Soft Agar) [4]	rel amt (relative value set to the control) (BXPC3 cells; 48 hours)	MTT assay result, av-blank (BXPC3 cells; 48 hours)	MTT assay result, av (average) (BXPC3 cells; 48 hours)	MTT assay result, run 1 (BXPC3 cells; 48 hours)	MTT assay result, run 2 (BXPC3 cells; 48 hours)	MTT assay result, run 3 (BXPC3 cells; 48 hours)	MTT assay result, run 4 (BXPC3 cells; 48 hours)	MTT assay result, run 5 (BXPC3 cells; 48 hours)	MTT assay result, run 6 (BXPC3 cells; 48 hours)	MTT assay result, run 7 (BXPC3 cells; 48 hours)	rel amt (relative value set to the control) (BXPC3 cells; 120 hours (5 days))	MTT assay result, av-blank (BXPC3 cells; 120 hours (5 days))	MTT assay result, av (BXPC3 cells; 120 hours (5 days))	MTT assay result, run 1 (BXPC3 cells; 120 hours (5 days))	MTT assay result, run 2 (BXPC3 cells; 120 hours (5 days))	MTT assay result, run 3 (BXPC3 cells; 120 hours (5 days))	MTT assay result, run 4 (BXPC3 cells; 120 hours (5 days))	further results
CC(C)=CCC/C(C)=C/CC/C(C)=C/CC[C@]1(C)CCc2cc(O)cc(C)c2O1 [T3 delta, delta tocotrienol]	significantly decreased the proliferation	significantly decreased the proliferation	significantly inhibited the malignant transformation	95	0.216	0.265	0.26	0.255	0.24	0.263	0.271	0.277	0.288	81	0.465	0.520	0.485	0.49	0.522	0.539	proliferation (MTT) [3]: significantly inhibited; pIC50 (MIA PaCa2 cells): 4.60 to 4.70; MTT assay result, run 5 (BXPC3 cells; 120 hours (5 days)): 0.551; MTT assay result, run 6 (BXPC3 cells; 120 hours (5 days)): 0.523; MTT assay result, run 7 (BXPC3 cells; 120 hours (5 days)): 0.527; apoptosis (Cell death ELISA) [5]: significantly induced; cell death (Trypan Blue) [6]: significantly induced the death
Cc1c(C)c2c(c(C)c1O)CC[C@@](C)(CCC[C@H](C)CCC[C@H](C)CCCC(C)C)O2 [T alpha, alpha tocopherol]	no effect	no effect	no effect	120	0.274	0.323	0.333	0.328	0.352	0.296	0.3	0.341	0.312	106	0.611	0.666	0.657	0.642	0.666	0.659	MTT assay result, run 5 (BXPC3 cells; 120 hours (5 days)): 0.705; MTT assay result, run 6 (BXPC3 cells; 120 hours (5 days)): 0.66; MTT assay result, run 7 (BXPC3 cells; 120 hours (5 days)): 0.672; apoptosis (Cell death ELISA) [5]: no effect; cell death (Trypan Blue) [6]: no effect
alpha tocotrienol [T3 alpha]	no effect	no effect	no effect	104	0.236	0.285	0.279	0.275	0.295	0.301	0.3	0.273	0.275	97	0.558	0.613	0.584	0.637	0.594	0.63	proliferation (MTT) [3]: no effect; MTT assay result, run 5 (BXPC3 cells; 120 hours (5 days)): 0.62; MTT assay result, run 6 (BXPC3 cells; 120 hours (5 days)): 0.61; MTT assay result, run 7 (BXPC3 cells; 120 hours (5 days)): 0.618; apoptosis (Cell death ELISA) [5]: no effect; cell death (Trypan Blue) [6]: no effect
